Publication PMC4426668, “De novo synthesis of a sunscreen compound in vertebrates” (eLife, 2015)

Assays:
Format in all cases: biochemical
MT-Ox (zgc:113054) [1] = target: T1, MT-Ox (zgc:113054) (Danio rerio, UniProt A0ACM8Q6W2); assay: product (gadusol) detection by (-)-ESI-MS; conditions: SAM and NAD+ present; 30 °C
T1 construct: gene wu:fd55e12; bifunctional full-length protein (N-terminal SAM methyltransferase domain, C-terminal NAD+ oxidoreductase domain), N-terminal His6 tag (pRSET-B), codon-optimised, E. coli, Ni-NTA purified
T1 sequence (A0ACM8Q6W2 1-551): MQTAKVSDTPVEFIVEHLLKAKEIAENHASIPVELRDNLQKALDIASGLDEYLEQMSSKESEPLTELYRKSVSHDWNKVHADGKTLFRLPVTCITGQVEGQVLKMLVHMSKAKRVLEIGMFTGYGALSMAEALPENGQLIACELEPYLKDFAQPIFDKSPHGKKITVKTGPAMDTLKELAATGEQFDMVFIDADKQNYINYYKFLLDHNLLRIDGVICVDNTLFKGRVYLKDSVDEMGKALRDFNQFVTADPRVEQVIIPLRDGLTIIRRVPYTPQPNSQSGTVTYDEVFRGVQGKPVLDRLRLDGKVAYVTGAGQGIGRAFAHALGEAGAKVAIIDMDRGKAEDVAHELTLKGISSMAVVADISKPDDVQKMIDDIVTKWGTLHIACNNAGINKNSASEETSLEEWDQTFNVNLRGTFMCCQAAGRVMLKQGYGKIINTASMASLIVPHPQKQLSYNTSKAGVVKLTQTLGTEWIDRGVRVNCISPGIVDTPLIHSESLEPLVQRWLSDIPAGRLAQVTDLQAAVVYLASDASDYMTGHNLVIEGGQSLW

ValA (ShEEVS) = target: T2, ValA (ShEEVS) (Streptomyces hygroscopicus, UniProt H2K887); assay: TLC and GC-MS of product; conditions: positive control enzyme; 4 mM SH7P, 1 mM NAD+, 0.1 mM CoCl2 or ZnSO4, 20 mM Tris-HCl pH 7.5, 30 °C, 2 h
T2 construct: N-terminal His6 tag (pRSETB-valA), expressed in E. coli BL21 GOLD (DE3) pLysS, Ni-NTA purified
T2 sequence (H2K887 whole entry): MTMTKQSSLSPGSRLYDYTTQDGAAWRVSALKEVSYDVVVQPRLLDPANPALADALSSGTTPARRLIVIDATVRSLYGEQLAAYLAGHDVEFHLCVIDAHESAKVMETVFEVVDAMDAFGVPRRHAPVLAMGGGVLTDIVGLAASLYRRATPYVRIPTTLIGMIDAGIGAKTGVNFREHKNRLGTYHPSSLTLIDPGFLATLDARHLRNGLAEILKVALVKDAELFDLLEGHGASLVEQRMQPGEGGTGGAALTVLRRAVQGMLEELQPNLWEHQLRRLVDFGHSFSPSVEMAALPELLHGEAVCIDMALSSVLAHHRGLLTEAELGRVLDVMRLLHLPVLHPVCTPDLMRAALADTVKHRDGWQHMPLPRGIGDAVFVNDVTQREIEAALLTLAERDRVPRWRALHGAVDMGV

[2] = target: T3, LOC100003999 (zebrafish EEVS, DrEEVS) (Danio rerio, UniProt A0ACD6B5C7); assay: TLC; GC-MS of silylated product against authentic EEV (cell-free extract); conditions: 4 mM SH7P, 1 mM NAD+, 0.1 mM CoCl2 or ZnSO4, pH 7.5, 30 °C
T3 construct: N-terminal His6 tag (pRSET-B), codon-optimised synthetic gene, expressed in E. coli BL21 GOLD (DE3) pLysS, Ni-NTA purified
T3 sequence (A0ACD6B5C7 1-470): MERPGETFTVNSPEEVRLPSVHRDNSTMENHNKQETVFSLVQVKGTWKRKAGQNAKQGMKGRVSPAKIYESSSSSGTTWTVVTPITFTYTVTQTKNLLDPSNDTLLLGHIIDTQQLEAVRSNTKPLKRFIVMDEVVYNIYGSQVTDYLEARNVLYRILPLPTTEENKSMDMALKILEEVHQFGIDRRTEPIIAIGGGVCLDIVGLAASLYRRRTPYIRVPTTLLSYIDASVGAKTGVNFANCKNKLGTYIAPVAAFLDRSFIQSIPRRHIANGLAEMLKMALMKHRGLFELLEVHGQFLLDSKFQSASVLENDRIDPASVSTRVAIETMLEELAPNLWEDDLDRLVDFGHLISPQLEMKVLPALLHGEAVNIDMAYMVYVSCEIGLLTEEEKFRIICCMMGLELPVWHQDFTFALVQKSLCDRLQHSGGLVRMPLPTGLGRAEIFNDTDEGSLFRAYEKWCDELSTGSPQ

MT-Ox (zgc:113054) [3] = target: T1, MT-Ox (zgc:113054); assay: product (gadusol) detection by HPLC-UV and (-)-ESI-MS; conditions: methyl donor, 5 mM; NAD+ 2 mM, CoCl2 0.2 mM, phosphate pH 7.4, 30 °C
[4] = target: T3, LOC100003999 (zebrafish EEVS, DrEEVS); assay: product detection by TLC; GC-MS with cell-free extract; conditions: 4 mM SH7P, 1 mM NAD+, 0.1 mM CoCl2 or ZnSO4, 20 mM Tris-HCl pH 7.5, 30 °C, 2 h

| SMILES | product (gadusol) detection by (-)-ESI-MS (MT-Ox (zgc:113054) [1]) | TLC and GC-MS of product (ValA (ShEEVS)) | TLC; GC-MS of silylated product against authentic EEV (cell-free extract) [2] | product (gadusol) detection by HPLC-UV and (-)-ESI-MS (MT-Ox (zgc:113054) [3]) | product detection by TLC; GC-MS with cell-free extract [4] |
| --- | --- | --- | --- | --- | --- |
| O=C1C[C@@](O)(CO)[C@@H](O)[C@H](O)[C@@H]1O [2-epi-5-epi-valiolone] | Synthetic EEV incubated with purified MT-Ox | TLC analysis of enzymatic products of purified ValA and purified LOC100003999 | confirmed by thin-layer chromatography (TLC) and GC-MS to be EEV |  |  |
| C[S+](CC[C@H](N)C(=O)O)C[C@H]1O[C@@H](n2cnc3c(N)ncnc32)[C@H](O)[C@@H]1O (stereo partly drawn) [S-adenosylmethionine] |  |  |  | incubated with EEV in the presence of SAM and NAD^+ |  |
| O=P(O)(O)OC[C@@H](O)[C@H]1OC(O)(CO)[C@@H](O)[C@@H]1O (stereo partly drawn) [sedoheptulose 7-phosphate] |  | ValA (instead of LOC100003999) was used as a positive control |  |  | Incubation of the recombinant protein with SH7P gave a product |
